In patent publication US20050244983A1, “Method for measuring antioxidant status” (The Western Australian Centre for Pathology and Medical …, priority 2002, published 2005):

Columns and labels:
[1] = AIOR assay (antioxidant inhibition of radical assay): uroporphyrin I fluorescence decay with AAPH, area under curve against Trolox standard curve; type: biochemical; settings: for Area Under Curve (mean ± SD): uroporphyrin 1/1000, ratio 1:45:280, n=6
[2] = as above; type: biochemical; settings: for Area Under Curve (mean ± SD): uroporphyrin 1/1000, ratio 1:45:280, n=6; for Antioxidant Status (mM) Trolox Equivalent Calculated 1/16 Dilution: calculated from the observed ¼ dilution value; for Antioxidant Status Trolox Equivalent (mM) of the observed individual ¼ Dilution: individual polyphenol; for Antioxidant Status Trolox Equivalent (mM) of the observed individual ¼ Dilution / Antioxidant status in mM Trolox equivalent, High value / Antioxidant status in mM Trolox equivalent, Low value / Antioxidant status in mM Trolox equivalent, Mean value: n=9; for antioxidant activity of solvent (in words) / Antioxidant status in mM Trolox equivalent, High value / Antioxidant status in mM Trolox equivalent, Low value / Antioxidant status in mM Trolox equivalent, Mean value: solvent compared against blank
Procedure: The stock phosphate buffer (0.75 M, pH 7.0) was prepared by mixing 61.1:38.9 (v/v) of a 0.75 M K2HPO4 and a 0.75 M NaH2PO4 solution. The working phosphate buffer 75 mM, pH 7.0 was prepared by a 1:9 (v/v) dilution of the 0.75 M stock phosphate buffer.
AAPH (583 mM) was prepared by dissolving completely 0.474 g of AAPH in 3 mL of 75 mM, pH 7.0 phosphate buffer. This solution was prepared freshly before each run.
Uroporphyrin stock solution (225 μM) was prepared by dissolving 1.2 mg of uroporphyrin I dihydrochloride in 5.9 mL of phosphate buffer (75 mM, pH 7.0). This solution was very stable for many months by storing in the dark at 4° C. A secondary uroporphyrin stock solution for routine use was prepared by a 1:50 (v/v) dilution of the stock uroporphyrin solution with phosphate buffer (75 mM, pH 7.0). This secondary stock solution was stable for several months in the dark at 4° C. A working uroporphyrin solution for daily use was prepared by a 1:750 (v/v) dilution of the secondary uroporphyrin solution with phosphate buffer (75 mM, pH 7.0).
To enable complete solubility of both hydrophobic and hydrophilic compounds in the sample, a surfactant Brij 35™ was added to the working uroporphyrin solution in the quantity of 0.1% of the reagent.
Trolox was used as an antioxidant standard to compare the antioxidant status of various inorganic and organic matter. A stock Trolox standard solution (5.0 mM) was prepared by dissolving Trolox 35 (250 mg) in 200 mL of phosphate buffer (75 mM, pH 7.0). Working standards of Trolox were prepared by diluting the stock Trolox standard to 0.5, 1.0 and 2.0 mM with the same buffer.
Sample/blank/standard (1 μL), and working uroporphyrin solution (0.300 uM) with Brij™ (136 μL) were added to the wells of a 96-well microplate. Blank, standards or diluted samples were added first into the well, followed by working uroporphyrin solution with Brij™. The contents of each well was mixed using a plateshaker for 1-2 minutes. Freshly prepared AAPH solution […] (22 μL) was then added. This procedure provided a sample to AAPH to uroporphyrin ratio of (1:22:136). The contents of the wells were then mixed again for exactly 2 minutes before acquisition of data with the Varian Cary Eclipse fluorescence spectrophotometer. A sample to reagent ratio of (2:30:186) was also used to further improve the precision of the assay.
The Varian Cary Eclipse fluorescence spectrophotometer settings were as follows. • Excitation λ=397 nm; Emission λ=615 nm. • Excitation Slit=20 nm; Emission Slit=10 nm. • Ave Time=0.2 sec. • Run Time=180 minutes. • Y (min-max)=0-1000. • Excitation Filter: Auto. • Emission Filter: Open. • PMT: Variable (Choice of low, medium or high).
The method takes the free radical action to completion in 180 minutes. The Varian Cary Eclipse fluorescence spectrophotometer has the ability to achieve high throughput of 96 samples in 180 minutes with the 96-wellplate format. […] This invention provides both a method and reagent, which can accurately, easily, economically, and quickly analyze antioxidant status.
The results of the analysis were normalized by Varian Cary Eclipse software and calculated by GraphPad Prism 4.0 software (GraphPad Software, Inc., San Diego Calif., 2003).

SMILES: Cc1c(C)c2c(c(C)c1O)CCC(C)(C(=O)O)O2 (racemic) [Trolox, (±)6-hydroxy-2,5,7,8-tetramethylchromane-2-carboxylic acid]
- Area Under Curve (mean ± SD) ([1]; STD 1.0 mM, AAPH 583 mM): 40829 ± 4000
- Area Under Curve (mean ± SD) ([1]; STD 2.0 mM, AAPH 583 mM): 55416 ± 3207
- Area Under Curve (mean ± SD) ([1]; STD 2.0 mM, AAPH 640 mM): 44522 ± 2348
- Area Under Curve (mean ± SD) ([1]; STD 4.0 mM, AAPH 640 mM): 69220 ± 6603
- Mean Area Under Curve ([1]; Trolox 2.0 mM, 100 μL Brij 35 per 15 mL working uroporphyrin solution, n=24): 71394
- Area Under Curve (mean ± SD) ([2]; STD 1.0 mM, AAPH 640 mM): 35554 ± 2267
- Area Under Curve (mean ± SD) ([2]; STD 4.0 mM, AAPH 583 mM): 77238 ± 3701
- Mean Area Under Curve ([2]; Trolox 0.5 mM, 20 μL Brij 35 per 15 mL working uroporphyrin solution, n=24): 45482
- Mean Area Under Curve ([2]; Trolox 0.5 mM, 100 μL Brij 35 per 15 mL working uroporphyrin solution, n=24): 52714
- Mean Area Under Curve ([2]; Trolox 0.5 mM, intra-assay precision, n=16): 47456
- Mean Area Under Curve ([2]; Trolox 1.0 mM, 20 μL Brij 35 per 15 mL working uroporphyrin solution, n=24): 57154
- Mean Area Under Curve ([2]; Trolox 1.0 mM, 100 μL Brij 35 per 15 mL working uroporphyrin solution, n=24): 61482
- Mean Area Under Curve ([2]; Trolox 1.0 mM, intra-assay precision, n=16): 57535
- Mean Area Under Curve ([2]; Trolox 2.0 mM, 20 μL Brij 35 per 15 mL working uroporphyrin solution, n=24): 72596
- Mean Area Under Curve ([2]; Trolox 2.0 mM, intra-assay precision, n=16): 76499

SMILES: Oc1cc(O)c2c(c1)O[C@H](c1ccc(O)c(O)c1)[C@H](O)C2 [(−) Epicatechin, (−) epicatechin]
- Antioxidant Status (mM) Trolox Equivalent Calculated 1/16 Dilution [2]: 1.00 mM
- Antioxidant Status Trolox Equivalent (mM) of the observed individual ¼ Dilution [2]: 4.03 ± 0.28 mM
- Antioxidant Status Trolox Equivalent (mM ± SD) ([2]; polyphenol 0.25 mM in ethanol): 1.62 ± 0.13 mM
- Antioxidant Status Trolox Equivalent (mM ± SD) ([2]; polyphenol 0.5 mM in ethanol): 3.69 ± 0.23 mM

SMILES: CC(C)=O [Acetone]
- antioxidant activity of solvent (in words) [2]: no antioxidant activity
- Antioxidant status in mM Trolox equivalent, High value [2]: 0.2 mM
- Antioxidant status in mM Trolox equivalent, Low value [2]: 0.0 mM
- Antioxidant status in mM Trolox equivalent, Mean value [2]: 0.08 mM

SMILES: C[S+](C)[O-] [DMSO, Dimethyl sulphoxide]
- Antioxidant status in mM Trolox equivalent, High value [2]: 1.2 mM
- Antioxidant status in mM Trolox equivalent, Low value [2]: 0.6 mM
- Antioxidant status in mM Trolox equivalent, Mean value [2]: 0.86 mM

SMILES: CCO [Ethanol]
- antioxidant activity of solvent (in words) [2]: no antioxidant activity
- Antioxidant status in mM Trolox equivalent, High value [2]: 0.1 mM
- Antioxidant status in mM Trolox equivalent, Low value [2]: 0.0 mM
- Antioxidant status in mM Trolox equivalent, Mean value [2]: 0.08 mM

SMILES: O=C(O)c1cc(O)c(O)c(O)c1 [Gallic acid]
- Antioxidant Status (mM) Trolox Equivalent Calculated 1/16 Dilution [2]: 0.45 mM
- Antioxidant Status Trolox Equivalent (mM) of the observed individual ¼ Dilution [2]: 1.75 ± 0.11 mM
- Antioxidant Status Trolox Equivalent (mM ± SD) ([2]; polyphenol 0.25 mM in ethanol): 0.46 ± 0.07 mM
- Antioxidant Status Trolox Equivalent (mM ± SD) ([2]; polyphenol 0.5 mM in ethanol): 1.22 ± 0.17 mM

SMILES: CC(C)O [Isopropanol]
- antioxidant activity of solvent (in words) [2]: no antioxidant activity
- Antioxidant status in mM Trolox equivalent, High value [2]: 0.1 mM
- Antioxidant status in mM Trolox equivalent, Low value [2]: 0.0 mM
- Antioxidant status in mM Trolox equivalent, Mean value [2]: 0.04 mM
